# Laboratory results reported in US20040039039A1, “Fungicidal mixtures” (priority 2003, published 2004).
# System: Plasmopara viticola
# Assay: Protective activity against Peronospora in grapevines caused by Plasmopara viticola
# Assay type: in vivo
# Settings: individual active compound, potted vines
# Procedure: The active compounds, separately or together, were formulated as a 10% emulsion in a mixture of 63% by weight of cyclohexanone and 27% by weight of emulsifier, and diluted with water to the desired concentration.
# Evaluation was carried out by determining the infected leaf areas in percent. These percentages were converted into efficacies. The efficacy (W) was calculated as follows using Abbot's formula: […]
# α corresponds to the fungal infection of the treated plants in % and β corresponds to the fungal infection of the untreated (control) plants in % An efficacy of 0 means that the infection level of the treated plants corresponds to that of the untreated control plants; an efficacy of 100 means that the treated plants were not infected.
# The expected efficacies of the mixtures of the active compounds were determined using Colby's formula [R. S. Colby, Weeds 15, 20-22 (1967)] and compared with the observed efficacies.
# Colby's formula: E=x+y−x·y/100
# E expected efficacy, expressed in % of the untreated control, when using the mixture of the active compounds A and B at the concentrations a and b x efficacy, expressed in % of the untreated control, when using active compound A at a concentration a y efficacy, expressed in % of the untreated control, when using active compound B at a concentration b.
# Protective Activity Against Peronospora in Grapevines Caused by Plasmopara viticola Leaves of potted vines of the cultivar “Müiller-Thurgau” were sprayed to runoff point with an aqueous preparation of active compound which had been prepared using a stock solution comprising 10% of active compound, 85% of cyclohexanone and 5% of emulsifier. The next day, the undersides of the leaves were inoculated with an aqueous zoospore suspension of Plasmopara viticola. The vines were then placed firstly for 48 hours in a water-vapor-saturated chamber at 24° C. and then for 5 days in a greenhouse at 20-30° C. After this period of time, the plants were again placed in a moist chamber for 16 hours to accelerate the sporangiophore eruption. The extent to which the undersides of the leaves had been infected was then determined visually.
compound,measurement,setting,value
zinc ammoniate ethylenebis(dithiocarbamate) [IIc],Efficacy in % of the untreated control,5 ppm in the spray liquor,0%
same,Efficacy in % of the untreated control,10 ppm in the spray liquor,11%
manganese ethylenebis(dithiocarbamate) (zinc complex) [IIa],Efficacy in % of the untreated control,5 ppm in the spray liquor,11%
same,Efficacy in % of the untreated control,10 ppm in the spray liquor,72%
"Cc1ccc(-c2c(Cl)nc(C#N)n2S(=O)(=O)N(C)C)cc1 [Ia, cyazofamid]",Efficacy in % of the untreated control,0.05 ppm in the spray liquor,56%
same,Efficacy in % of the untreated control,0.1 ppm in the spray liquor,78%
same,Efficacy in % of the untreated control,0.2 ppm in the spray liquor,89%
